Assay results from patent US4962277A, “Deletion analogues of magainin peptides” (priority 1988, dated 1990).
Where two headings read alike, the source gives them in different places. No end group written: not given here.

How the values were obtained:
human red blood cells = details: pH 7
Staphylococcus epidermis = experiment: Antimicrobial assay: growth inhibition in 96-well plates, O.D.620 at six hours; format: cell-based; details: for % Inhibit, S. epidermis: 1.0×10^6 CFU/ml; for Effective Growth Inhibition Conc., S. epidermis: concentration at which the reported % inhibition (greater than 80%) was found, 100% at next higher concentration if below 100%
Method: (§1) Antimicrobial assays were carried out in 96 -well tissue culture plates. Each well was incubated with a given microorganism suspended in LB medium (Escherichia coli, and Staphylococcus epidermis or YTB medium (Candida albicans). Upon the addition of the peptides or their deletion analogues, (dissolved in 1×PBS, pH 7.0) each well contained a final cell density of 1.0×10^6 colony forming units (CFU)/ml. The final peptide concentrations used were 100 μg/ml., 75.0 μg/ml, 50.0 μg/ml, 25 μg/ml, and 10 μg/ml Concentrations of up to 500 μg/ml, however, were employed against C. albicans.
(§2) Addition of peptides to the wells was defined as time zero. At six hours, the plates were placed in a Titertek Multiskan apparatus and the O.D.620 determined. The plates as well as the initial innoculum were incubated at 37° C.
(§3) Five wells per plate contained media alone. while five others contained medium plus cells. These controls were used to eliminate the possibility of media contamination while providing a measure of uninhibited growth of the microorganisms. The measurements of 1/(change in optical in density) for the wells containing either the peptides or their deletion analogues in the above-mentioned varying concentrations with the colony forming units of E. coli or S. epidermis are shown in FIGS. 1 and 2. FIG. 1 is a graph of the measurements of 1/(change in optical density) for wells containing Magainin I or Magainin II peptides or their deletion analogues and E. coli. FIG. 1a is a graph pertaining to Magainin I (indicated by X) and its deletion analogues. (The deletion analogue wherein amino acid 23 omitted was not tested). FIG. 1b is a graph pertaining to Magainin II (indicated by X) and its deletion analogues. In both graphs, Z is a control of medium plus cells.
FIG. 2 is a graph of the measurements of 1/(change in optical density) for wells containing Magainin I or Magainin II peptides or their deletion analogues and S. epidermis. FIG. 2a is a graph pertaining to Magainin I (indicated by X) and its deletion analogues. (The deletion analogue wherein amino acid 23 was deleted was not tested.) FIG. 2b is a graph pertaining to Magainin II (indicated by X) and its deletion analogues. In both graphs, Z is a control of medium plus cells. The measurements of 1/(change in optical density) as measured for the Magainin I and Magainin II peptides and their deletion analogues can be correlated to a measurement of their effectivness against E. coli and S. epidermis.
(§4) The degree of peptide activity was determined by comparing the deletion analogs with uninhibited growth of the control cells over a six-hour period. […] As listed in Table 1, M1C is Magainin I, C-terminal carboxyl carboxy-terminated), whereas M2A, is Magainin II, C-terminal amide (amide-terminated). The letter and number code after each M1C or M2A peptide indicates the amino acid residue deleted from the particular deletion analogue of Magainin I carboxY-terminated) or Magainin II (amide-terminated).

Escherichia coli = format: cell-based; details: six hours; for Effective Growth Inhibition Conc., E. coli: concentration at which the reported % inhibition (greater than 80%) was found, 100% at next higher concentration if below 100%; for % Inhibit, E. coli: 1.0×10^6 CFU/ml
Method: as §1, §2, §3, §4

E. coli = experiment: Kinetics of microbial killing; format: cell-based; details: peptide 25 μg/ml; E. coli 1.0×10^6 CFU/ml; 37° C.
Method: Dissolved peptide preparations of amide-terminated Magainin II, amide-terminated Magainin II with glycine (amino acid 18) deleted, and amide-terminated Magainin II with glutamic acid (amino acid 19) deleted were added to test tubes containing E. coli (1.0×10^6 CFU/ml) to a final peptide concentration of 25 μg/ml. At the time points of 15, 30, 45, and 60 minutes after the addition, indicated in FIG. 3, 10.0 µl were removed from each tube and sequentially diluted by a factor of ten four times in LB medium. The number of bacteria at each time point was determined by plating 10.0 μl of the 10^-2, 10^-3, and 10^-4 dilutions. The log of the number of bacteria from these dilutions at each time point was determined, and was plotted on the graph in FIG. 3. Two controls, one with medium alone and one with no peptides were both incubated along with the tubes containing cells and peptides. The tubes as well as the agar plates used were incubated at 37° C.

GIGKFLHSAGKFGKAFVGIMKS [M1C-E^19]
% Hemolysis of Human Red Blood Cells (human red blood cells): 1%

GIGKFLSAKKFGKAFVGEIMNS-NH2 [M2A-H^7]
% Inhibit, S. epidermis (Staphylococcus epidermis; peptide 100 μg/ml): 0%
Effective Growth Inhibition Conc., E. coli (Escherichia coli): 100 µg/mL
% Inhibit, E. coli (Escherichia coli; peptide 100 μg/ml): 90%
% Hemolysis of Human Red Blood Cells (human red blood cells): 0%

GIGKFLSAGKFGKAFVGEIMKS [M1C-H^7]
% Hemolysis of Human Red Blood Cells (human red blood cells): 0%

GIGKFHSAKKFGKAFVGEIMNS-NH2 [M2A-L^6]
% Inhibit, S. epidermis (Staphylococcus epidermis; peptide 100 μg/ml): 0%
% Inhibit, E. coli (Escherichia coli; peptide 100 μg/ml): 0%
% Hemolysis of Human Red Blood Cells (human red blood cells): 1%

GIGKFLHSAKKFGKAFVGEIMN-NH2 [M2A-S^23]
% Inhibit, S. epidermis (Staphylococcus epidermis; peptide 100 μg/ml): 0%
Effective Growth Inhibition Conc., E. coli (Escherichia coli): 25 µg/mL
Effective Growth Inhibition Conc., E. coli (Escherichia coli; listed as M2A-S^8): 75 µg/mL
% Inhibit, E. coli (Escherichia coli; peptide 25 μg/ml): 100%
% Inhibit, E. coli (Escherichia coli; peptide 75 μg/ml): 90%

GIGKFLHSAGKFGKAFVGEIMK [M1C-S^23]
% Hemolysis of Human Red Blood Cells (human red blood cells): 0%

GIGKFLHSAKKFGKAFGEIMNS-NH2 [M2A-V^17]
% Inhibit, S. epidermis (Staphylococcus epidermis; peptide 100 μg/ml): 0%
Effective Growth Inhibition Conc., E. coli (Escherichia coli): 50 µg/mL
% Inhibit, E. coli (Escherichia coli; peptide 50 μg/ml): 87%
% Hemolysis of Human Red Blood Cells (human red blood cells): 0%

GIGKFLHSAKKFGKFVGEIMNS-NH2 [M2A-A^15]
Effective Growth Inhibition Conc., S. epidermis (Staphylococcus epidermis): 25 µg/mL
% Inhibit, S. epidermis (Staphylococcus epidermis; peptide 25 μg/ml): 90%
% Inhibit, S. epidermis (Staphylococcus epidermis; peptide 100 μg/ml): 0%
Effective Growth Inhibition Conc., E. coli (Escherichia coli): 10 µg/mL
Effective Growth Inhibition Conc., E. coli (Escherichia coli; listed as M2A-A^9): 75 µg/mL
% Inhibit, E. coli (Escherichia coli; peptide 10 μg/ml): 95%
% Inhibit, E. coli (Escherichia coli; peptide 75 μg/ml): 82%

GIGKFLHSAKKFGKAFVEIMNS-NH2 [M2A-G^18]
Effective Growth Inhibition Conc., S. epidermis (Staphylococcus epidermis): 10 µg/mL
% Inhibit, S. epidermis (Staphylococcus epidermis; peptide 10 μg/ml): 89%
% Inhibit, S. epidermis (Staphylococcus epidermis; peptide 50 μg/ml): 80%
% Inhibit, S. epidermis (Staphylococcus epidermis; peptide 100 μg/ml): 0%
time until all E. coli cells were killed after addition of the peptide (E. coli): ≤ 15 min
Effective Growth Inhibition Conc., E. coli (Escherichia coli): 10 µg/mL
Effective Growth Inhibition Conc., E. coli (Escherichia coli; listed as M2A-G^3): 100 µg/mL
Effective Growth Inhibition Conc., E. coli (Escherichia coli; listed as M2A-G^13): 25 µg/mL
% Inhibit, E. coli (Escherichia coli; peptide 10 μg/ml): 94%
% Inhibit, E. coli (Escherichia coli; peptide 25 μg/ml): 89%
% Inhibit, E. coli (Escherichia coli; peptide 100 μg/ml): 0%
% Inhibit, E. coli (Escherichia coli; peptide 100 μg/ml, listed as M2A-G^3): 93%

GIGKFLHSAKKFGKAFVGEMNS-NH2 [M2A-I^20]
% Inhibit, S. epidermis (Staphylococcus epidermis; peptide 100 μg/ml): 0%
Effective Growth Inhibition Conc., E. coli (Escherichia coli): 25 µg/mL
% Inhibit, E. coli (Escherichia coli; peptide 25 μg/ml): 84%
% Inhibit, E. coli (Escherichia coli; peptide 100 μg/ml): 0%
% Hemolysis of Human Red Blood Cells (human red blood cells): 0%

GIGKFHSAGKFGKAFVGEIMKS [M1C-L^6]
% Hemolysis of Human Red Blood Cells (human red blood cells): 0%

GIGKFLHSAGKFGKAFVGEIKS [M1C-M^21]
% Hemolysis of Human Red Blood Cells (human red blood cells): 1%

GIGKFLHSAKKFGKAFVGEIMNS [Peptide M2-Carboxy, Magainin II, reference compound]
% Inhibit, E. coli (Escherichia coli; peptide 50 μg/ml): 100%

GIGKFLHSAGKFGKAFGEIMKS [M1C-V^17]
% Hemolysis of Human Red Blood Cells (human red blood cells): 1%

GIGKFLHSAGKFGKAFVGEMKS [M1C-I^20]
% Hemolysis of Human Red Blood Cells (human red blood cells): 1%

GIGKFLHSAGKFGKAFVGEIMKS [Peptide M1C, Magainin I, reference compound]
% Hemolysis of Human Red Blood Cells (human red blood cells): 2%

GIGKFLHSAKKFGKAFVGEINS-NH2 [M2A-M^21]
Effective Growth Inhibition Conc., S. epidermis (Staphylococcus epidermis): 75 µg/mL
% Inhibit, S. epidermis (Staphylococcus epidermis; peptide 75 μg/ml): 90%
Effective Growth Inhibition Conc., E. coli (Escherichia coli): 25 µg/mL
% Inhibit, E. coli (Escherichia coli; peptide 25 μg/ml): 95%
% Hemolysis of Human Red Blood Cells (human red blood cells): 0%

GIGKFLHSAKKFGKAVGEIMNS-NH2 [M2A-F^16]
% Inhibit, S. epidermis (Staphylococcus epidermis; peptide 100 μg/ml): 0%
Effective Growth Inhibition Conc., E. coli (Escherichia coli): 100 µg/mL
% Inhibit, E. coli (Escherichia coli; peptide 100 μg/ml): 92%
% Inhibit, E. coli (Escherichia coli; peptide 100 μg/ml, listed as M2A-F^5): 0%
% Inhibit, E. coli (Escherichia coli; peptide 100 μg/ml, listed as M2A-F^12): 0%
% Hemolysis of Human Red Blood Cells (human red blood cells): 1%

GIGKFLHSAKKFGKAFVGEIMS-NH2 [M2A-N^22]
Effective Growth Inhibition Conc., S. epidermis (Staphylococcus epidermis): 75 µg/mL
% Inhibit, S. epidermis (Staphylococcus epidermis; peptide 75 μg/ml): 100%
Effective Growth Inhibition Conc., E. coli (Escherichia coli): 25 µg/mL
% Inhibit, E. coli (Escherichia coli; peptide 25 μg/ml): 100%
% Hemolysis of Human Red Blood Cells (human red blood cells): 2%

GIGKFLHSAKKFGKAFVGEIMNS-NH2 [Peptide M2A, reference compound]
Effective Growth Inhibition Conc., S. epidermis (Staphylococcus epidermis): 25 µg/mL
% Inhibit, S. epidermis (Staphylococcus epidermis; peptide 25 μg/ml): 93%
time until all E. coli cells were killed after addition of the peptide (E. coli): much slower
Effective Growth Inhibition Conc., E. coli (Escherichia coli): 25 µg/mL
% Inhibit, E. coli (Escherichia coli; peptide 25 μg/ml): 100%
% Hemolysis of Human Red Blood Cells (human red blood cells): 4%

GIGKFLHSAKKFGKAFVGIMNS-NH2 [M2A-E^19]
Effective Growth Inhibition Conc., S. epidermis (Staphylococcus epidermis): 10 µg/mL
% Inhibit, S. epidermis (Staphylococcus epidermis; peptide 10 μg/ml): 89%
time until all E. coli cells were killed after addition of the peptide (E. coli): ≤ 15 min
Effective Growth Inhibition Conc., E. coli (Escherichia coli): 10 µg/mL
% Inhibit, E. coli (Escherichia coli; peptide 10 μg/ml): 92%
% Hemolysis of Human Red Blood Cells (human red blood cells): 0%
